Reference: ChEMBL document CHEMBL1141735, “HIV-inhibitory and cytotoxic oligostilbenes from the leaves of Hopea malibato” (J Nat Prod, 1998)
Values after ≈ are worked out from the molar mass of the structure shown.

Legend:
[1] = tested on: Human immunodeficiency virus; assay: Antiviral activity against HIV infected in human CEM-SS cells; assay type: functional, organism-based; settings: Human immunodeficiency virus 1, CEM-SS
[2] = tested on: CEM-SS; assay: Cytotoxicity against human CEM-SS cells; assay type: cell-based

Row | Compound | EC50 [1] [µg/mL] | IC50 [2] [µg/mL]
1 | Oc1ccc([C@H]2c3c(O)cc(O)cc3[C@@H]3c4c(cc(O)cc4[C@H]2O)O[C@H]3c2ccc(O)cc2)cc1 [BALANOCARPOL] | 20 (≈ 42.5 µM) | 
2 | Oc1ccc([C@H]2c3c(O)cc(O)cc3[C@@H]3c4c(cc(O)cc4[C@]2(O)[C@@]2(O)c4cc(O)cc5c4[C@@H](c4cc(O)cc(O)c4[C@@H]2c2ccc(O)cc2)[C@H](c2ccc(O)cc2)O5)O[C@H]3c2ccc(O)cc2)cc1 [DIBALANOCARPOL] | 46 (≈ 49 µM) | 
3 | Oc1ccc(-c2oc3cc(O)cc4c3c2-c2cc(O)cc(O)c2[C@H](c2ccc(O)cc2)[C@H]4O)cc1 [MALIBATOL A] |  | 13 (≈ 27.8 µM)
4 | Oc1ccc([C@H]2c3c(O)cc(O)c(O)c3-c3c(-c4ccc(O)c(O)c4)oc4cc(O)cc(c34)[C@@H]2O)cc1 [MALIBATOL B] |  | 21 (≈ 42 µM)
